# Test results from US20090142323A1, “METHODS FOR TREATING A DISORDER BY REGULATING GPRC6A” (priority 2007, published 2009).
# Assays:
# GPRC6A = target: T1, GPRC6A (Mus musculus, UniProt Q8K4Z6); test: [3H]testosterone binding to membrane fractions of HEK-293 cells; parameters: expressed in transfected cells
# T1 sequence (Q8K4Z6 21-928): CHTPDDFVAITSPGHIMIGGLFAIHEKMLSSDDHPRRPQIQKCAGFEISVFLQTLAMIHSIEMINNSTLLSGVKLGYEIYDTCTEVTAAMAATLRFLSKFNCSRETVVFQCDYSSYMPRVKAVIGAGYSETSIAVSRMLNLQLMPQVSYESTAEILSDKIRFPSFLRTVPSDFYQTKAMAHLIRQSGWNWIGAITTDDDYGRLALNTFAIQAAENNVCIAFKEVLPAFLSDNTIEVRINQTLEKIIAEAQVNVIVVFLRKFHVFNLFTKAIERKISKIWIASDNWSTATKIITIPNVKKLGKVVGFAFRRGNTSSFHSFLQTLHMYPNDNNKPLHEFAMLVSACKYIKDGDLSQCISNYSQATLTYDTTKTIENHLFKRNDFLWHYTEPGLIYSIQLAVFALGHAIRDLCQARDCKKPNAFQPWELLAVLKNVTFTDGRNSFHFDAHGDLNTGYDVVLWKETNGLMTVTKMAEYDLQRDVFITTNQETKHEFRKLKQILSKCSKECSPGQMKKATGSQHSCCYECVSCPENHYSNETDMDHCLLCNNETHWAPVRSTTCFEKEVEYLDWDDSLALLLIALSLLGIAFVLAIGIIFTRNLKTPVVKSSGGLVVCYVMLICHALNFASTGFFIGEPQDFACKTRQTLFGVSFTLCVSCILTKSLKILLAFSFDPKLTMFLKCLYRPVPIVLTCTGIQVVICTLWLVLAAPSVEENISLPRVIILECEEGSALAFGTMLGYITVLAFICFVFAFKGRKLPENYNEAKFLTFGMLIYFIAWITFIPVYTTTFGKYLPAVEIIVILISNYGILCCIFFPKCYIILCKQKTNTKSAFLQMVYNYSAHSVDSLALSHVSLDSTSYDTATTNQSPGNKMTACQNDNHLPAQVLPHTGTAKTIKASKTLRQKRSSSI
# Experimental: Membranes from HEK and HEK stably transfected with GPRC6A were prepared and stored at −80° C. The membrane preparations were diluted to 0.15-0.5 mg protein/ml in binding buffer (in mM: 20 HEPES, 100 NaCl, 6 MgCl2, 1 EDTA, and 1 EGTA) immediately before all binding assays. Total binding saturation curves were generated by incubating 250 μl of membrane preparation and 250 μl of [^3H]Testoterone (Testosterone-[1,2,6,7-3H(N)]; 1 mCi; Sigma, Chemicals, St. Louis, Mo.), dissolved in binding buffer (in mM: 20 HEPES, 100 NaCl, 6 MgCl2, 1 EDTA, and 1 EGTA) for final reaction concentrations ranging from 0.3 to 25 nM, for 40 min. After the 40-min incubation, the binding reactions were terminated by rapidly filtering 400 μl of the reaction over a presoaked Whatman, glass-fiber filter (pore size, 1 μm) to separate bound steroid from free steroid. The filter was immediately washed twice with 12.5 ml of wash buffer (PBS) and placed in a scintillation vial. Radioactivity was counted in a liquid scintillation counter (Beckman Instruments, Fullerton, Calif.). All steps of the binding assays were conducted at 4° C.
# [1] = target: T2, calcium sensing receptor (CASR) (Rattus norvegicus, UniProt P48442); test: phospho-ERK in HEK-293 cells transfected with calcium sensing receptor; assay type: cell-based; conditions: HEK293 transfected with CASR
# T2 construct: expressed in transfected cells; host or cells: HEK-293
# T2 sequence (P48442 20-1079): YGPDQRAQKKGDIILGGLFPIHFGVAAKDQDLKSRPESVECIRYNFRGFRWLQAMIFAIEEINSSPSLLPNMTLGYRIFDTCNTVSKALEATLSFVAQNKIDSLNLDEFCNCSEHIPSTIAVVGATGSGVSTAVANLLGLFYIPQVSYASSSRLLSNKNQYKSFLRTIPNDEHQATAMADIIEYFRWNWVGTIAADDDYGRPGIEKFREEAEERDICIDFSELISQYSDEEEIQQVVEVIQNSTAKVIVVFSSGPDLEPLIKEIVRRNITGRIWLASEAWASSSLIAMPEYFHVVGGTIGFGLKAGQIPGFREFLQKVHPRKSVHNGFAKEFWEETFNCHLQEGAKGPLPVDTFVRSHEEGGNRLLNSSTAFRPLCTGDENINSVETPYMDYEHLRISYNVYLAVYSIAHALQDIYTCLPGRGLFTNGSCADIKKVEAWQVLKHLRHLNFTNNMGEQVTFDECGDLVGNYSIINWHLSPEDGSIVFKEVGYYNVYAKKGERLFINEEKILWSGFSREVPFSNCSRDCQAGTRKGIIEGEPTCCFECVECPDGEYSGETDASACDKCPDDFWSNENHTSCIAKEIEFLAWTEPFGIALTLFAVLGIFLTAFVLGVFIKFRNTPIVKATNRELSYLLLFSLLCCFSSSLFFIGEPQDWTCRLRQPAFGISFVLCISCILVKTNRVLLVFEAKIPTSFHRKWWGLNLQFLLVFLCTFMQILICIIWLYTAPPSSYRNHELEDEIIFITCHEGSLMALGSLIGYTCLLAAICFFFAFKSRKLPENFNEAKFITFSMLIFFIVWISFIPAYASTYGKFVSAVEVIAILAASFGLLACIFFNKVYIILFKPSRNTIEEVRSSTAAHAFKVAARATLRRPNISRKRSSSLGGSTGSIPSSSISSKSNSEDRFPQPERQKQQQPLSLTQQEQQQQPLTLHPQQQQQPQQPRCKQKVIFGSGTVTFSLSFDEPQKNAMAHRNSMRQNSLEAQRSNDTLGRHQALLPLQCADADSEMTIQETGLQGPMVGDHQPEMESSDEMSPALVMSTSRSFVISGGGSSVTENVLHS
# Experimental: Equal amounts of lysates were subjected to 10% SDS-PAGE, and phospho-ERK1/2 levels were determined by immunoblotting using antiphospho-ERK1/2 mitogen-activated protein kinase antibody (Cell Signaling Technology). […] An anti-peptide antibody was raised in a rabbit against a peptide ([…] (SEQ ID NO: 27)) corresponding to a sequence in the extracellular domain of mouse GPRC6A (in exon 1 of mouse GPRC6A gene) produced by Abgent (San Diego, Calif.). For phospho-ERK, the phospho-ERK1/2 levels were determined by immunoblotting using anti-phospho-ERK1/2 mitogen-activated protein kinase antibody (Cell Signaling Technology). Urinary β2-microglobulin was detected by rabbit polyclonal anti-β2-microglobulin antibody (Abcam Inc.). For aromatase expression analysis, the rabbit polyclonal anti-aromatase antibody (Abcam Inc.) and goat anti-rabbit IgG HRP secondary antibody (Santa Cruz Biotechnology Inc.) were used. Mouse anti-Actin antibody (Santa Cruz Biotechnology Inc.) was used for control protein loading.
compound,measurement,setting,value
C[C@]12CC[C@H]3[C@@H](CCC4=CC(=O)CC[C@@]43C)[C@@H]1CC[C@@H]2O [testosterone],specific testosterone binding to plasma membranes,GPRC6A; HEK-293 cells transfected with GPRC6A,Significant amounts of specific testosterone binding
same,specific testosterone binding to plasma membranes,GPRC6A; untransfected cells,negligible specific binding
same,phospho-ERK response,[1],did not responded
